Data as given in ChEMBL document CHEMBL1201862, “PubChem BioAssay data set” (2004).
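A five-concentration, 48-hour dose response in 96-well plates underlies each endpoint, interpolated linearly between surrounding concentrations. GI50 marks 50% less growth.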 Active and inactive are the calls of the source. Rule as the data show it: active = GI50 up to about 1.1 µM and inactive = higher.

Columns and labels:
Assay in all cases: NCI tumour cell line growth inhibition, 48 h
[1] = tested on: TK-10
[2] = tested on: HCT-116
[3] = tested on: NCI-H522
[4] = tested on: SK-MEL-2
[5] = tested on: SN12C
[6] = tested on: BT-549
[7] = tested on: SF-295
[8] = tested on: 786-0
[9] = tested on: IGROV-1
[10] = tested on: M14
[11] = tested on: HOP-62
[12] = tested on: LOX IMVI
[13] = tested on: RPMI-8226
[14] = tested on: MDA-N
[15] = tested on: CAKI-1
[16] = tested on: NCI/ADR-RES
[17] = tested on: CCRF-CEM
[18] = tested on: UACC-62
[19] = tested on: A498
[20] = tested on: K562

Measured: GI50

O=c1[nH]c2nc3ccccc3c(=O)n2/c1=C/c1ccccc1
inactive: [1] 53.8 µM | [2] 31.1 µM | [3] 17.1 µM | [4] > 100 µM | [5] 25.1 µM | [6] 17.1 µM | [7] > 100 µM | [8] 25.8 µM | [9] 17.9 µM | [10] 47.9 µM | [11] > 100 µM | [12] 25.2 µM | [13] 34.9 µM | [14] 25.6 µM | [15] 47.4 µM | [16] 43.6 µM | [17] 40.3 µM | [18] 28.6 µM

COC(=O)C(Cc1ccccc1)NC(=O)CSc1nnc(COc2ccc(Cl)cc2)n1-c1ccccc1 (stereo not given)
inactive: [1] 19.4 µM | [2] 23.1 µM | [19] 17 µM | [4] 17.7 µM | [5] 21.2 µM | [6] 27.4 µM | [8] 16.3 µM | [9] 27.5 µM | [10] 20.2 µM | [11] 15 µM | [12] 14.6 µM | [13] 20.5 µM | [14] 20.5 µM | [16] 21.8 µM | [20] 27.4 µM | [17] 16.8 µM | [18] 14.6 µM

O=c1c2ccccc2nc(Nc2cccc(Cl)c2)n1/N=C/C=C/c1ccccc1
inactive: [1] > 100 µM | [2] 60.4 µM | [3] 50.5 µM | [4] > 100 µM | [5] 52.6 µM | [6] > 100 µM | [7] 60 µM | [8] 48.5 µM | [9] > 100 µM | [10] > 100 µM | [11] 85.5 µM | [12] > 100 µM | [13] > 100 µM | [14] > 100 µM | [15] > 100 µM | [16] 63.5 µM | [20] > 100 µM | [17] > 100 µM | [18] 41.3 µM

Cc1ccc(S(=O)(=O)OC2CCN(C)CC2)cc1
inactive: [1] > 100 µM | [2] 46.6 µM | [3] 19 µM | [4] > 100 µM | [5] > 100 µM | [6] > 100 µM | [7] > 100 µM | [8] > 100 µM | [9] > 100 µM | [10] > 100 µM | [11] > 100 µM | [12] > 100 µM | [13] 23.2 µM | [14] > 100 µM | [16] > 100 µM | [20] 19.3 µM | [18] > 100 µM

Cc1ccc(C(=O)N/N=C(\N=N\c2ccc(C(=O)O)cc2)c2ccc(N(CCC#N)CCC#N)cc2C)cc1
inactive: [1] > 100 µM | [2] > 100 µM | [19] 53.8 µM | [4] > 100 µM | [5] > 100 µM | [6] 83 µM | [7] > 100 µM | [8] > 100 µM | [10] > 100 µM | [11] > 100 µM | [12] > 100 µM | [13] > 100 µM | [14] > 100 µM | [15] > 100 µM | [16] > 100 µM | [20] > 100 µM | [17] > 100 µM

COC(=O)C(=O)c1c2ccccc2n2ccc3c4ccccc4[nH]c3c12
inactive: [1] > 10 µM | [2] > 10 µM | [3] > 10 µM | [4] > 10 µM | [5] > 10 µM | [6] > 10 µM | [7] > 10 µM | [8] > 10 µM | [9] > 10 µM | [10] > 10 µM | [11] > 10 µM | [12] > 10 µM | [13] > 10 µM | [14] > 10 µM | [15] > 10 µM | [16] > 10 µM | [20] > 10 µM | [17] > 10 µM | [18] > 10 µM

N#C/C(=C/NC(N)=S)C(N)=O
inactive: [1] > 100 µM | [2] > 100 µM | [19] > 100 µM | [4] > 100 µM | [5] > 100 µM | [6] > 100 µM | [7] > 100 µM | [8] > 100 µM | [9] > 100 µM | [10] > 100 µM | [11] > 100 µM | [12] > 100 µM | [14] > 100 µM | [15] > 100 µM | [16] > 100 µM

O=C(O)C1(Cc2ccccc2)Cc2cc3c(cc2C1)CCC3
inactive: [1] > 100 µM | [2] 42.9 µM | [3] > 100 µM | [4] 82 µM | [5] > 100 µM | [6] > 100 µM | [7] > 100 µM | [8] > 100 µM | [9] > 100 µM | [10] 44.1 µM | [11] 99.3 µM | [12] > 100 µM | [13] 58.1 µM | [14] > 100 µM | [16] 89.3 µM | [20] 72.9 µM | [17] 45.1 µM | [18] > 100 µM
